Results: patent publication US20150315241A1, “Antibiotic Peptides” (priority 2007, published 2015)
Converted amounts (≈) assume the structure as drawn. Where a SMILES comes first, the peptide text is derived from it. Where no end group is shown, it is not given here. [ ]: non-standard residue; d: D form. The star is where a group is joined. Orn(α-tetramethylguanidino) = CN(C)C(=N[C@@H](CCCN)C(=O)*)N(C)C; Orn = NCCC[C@H](N)C(=O)O

Legend:
[1] = In vivo distribution of fluorescent-labelled peptide (imaging); parameters: species or system female Balb/c mice; conditions: mice, 40 μg i.p., 60-65 min
Procedure: The in vivo distribution was measured in mice using fluorescent-labelled peptides derivatives.
Near-infrared absorbing fluorescent dye Dy675 (Dyomics GmbH, Jena, Germany) was activated with DIC and coupled to the N-terminus of the peptide derivatives after completion of the solid phase peptide synthesis (see example 1). Afterwards the peptides were cleaved with TFA and purified by RP-HPLC (see example 1).
Forty μg of the labelled peptide derivatives were injected subcutaneously (sc) or intra-peritional (ip) into shaved and isoflurane anesthetized female Balb/c mice. The animals were placed into the fluorescence microscope chamber under continuous isoflurane exposure. Fluorescence exposure pictures were taken with an IVIS microscope set to 695 nm emission wavelength at every minute in the first 10 min after peptide addition and every 5 min afterwards until 65 min.

B. subtilis 347 = assay type: cell-based, Bactillus subtillis; conditions: 347, 20 h
Summary of the method: (§1)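 Bacteria grown overnight in NB at 37° C. were adjusted to 5×10^6 CFU/mL in 1% TSB and mixed 1:1 with a two-fold peptide series (final 125 μg/mL–60 ng/mL). After 20 hrs at 37° C., A595 was read; triplicates.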

E. coli 10233 = assay type: cell-based, Escherichia coli; conditions: 10233, 20 h
Summary of the method: as §1

E. coli 1103 = assay type: cell-based, Escherichia coli; conditions: 1103, 20 h
Summary of the method: as §1

Mycobacterium vaccae = assay type: cell-based; conditions: 20 h
Procedure: The minimal inhibition concentrations (MIC) of the apidaecin-derived peptides and peptide-derivatives were determined by a growth inhibition assay using a serial peptide dilution in sterilized round-bottom 96-well plates (polystyrene, U-bottom, Greiner Bio-One GmbH) with a final volume of 100 μL per well. The bacteria, e.g., E. coli BL21 A1, were grown in nutrient broth (NB, Carl Roth GmbH+Co. KG, Karlsruhe, Germany) at 37° C. over night. To each well of the 96-well plate, 50 μL of the overnight culture adjusted to 5×10^6 CFU/mL in 1% TSB were added. Lyophilized peptides and peptidomimetics were dissolved in 1% TSB (tryptic soy broth) or water to give a final concentration of 250 μg/mL. Fifty μL of the peptide or peptidomimetics solution were added to the first well of a row on the plate and mixed. Fifty μL of the first well containing the peptide solution were transferred to the second well, mixed and again 50 μL transferred to the next well and so on. Thereby, a two-fold dilution series was obtained starting at 250 μg/mL in the first well down to 120 ng/mL in the 12th well of a row giving a final peptide or peptidomimetics concentration from 125 μg/mL (well 1) to 60 ng/mL (well 12). Plates were incubated at 37° C. for 20 hrs. The absorbance was measured at 595 nm using a TECAN micro plate spectrophotometer (Tecan, Germany). All peptides and peptidomimetics were measured in triplicates. Sterilized water was used as a negative control.
The bacteria strains were tested: • Eschericha coli 1103, 10233, BL 21 AI, DC 2, • Klebsiella pneumoniae 681, • Micrococcus luteus ATCC 10240, • Mycobacterium vaccae • Bactillus subtillis 347.

E. coli BL 21 AI = test: Growth inhibition assay (MIC); assay type: cell-based, Escherichia coli; conditions: 1% TSB, 37° C., 20 hrs
Summary of the method: as §1

E. coli DC 2 = test: Growth inhibition assay (MIC); assay type: cell-based, Escherichia coli; conditions: 1% TSB, 37° C., 20 hrs
Summary of the method: as §1

E. coli D31 = assay type: cell-based, Escherichia coli; conditions: D31, 20 h
Summary of the method: (§2)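 MIC by growth inhibition: overnight NB culture → 5×10^6 CFU/mL in 1% TSB; peptide 2-fold series, final 125 μg/mL to 60 ng/mL; 37° C., 20 hrs; OD595. n=3.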

[2] = test system: S. enterica subsp. Enterica serovar. typhi G10215 ATCC 700408; assay type: cell-based, Salmonella enterica; conditions: ATCC 700408, 20 h
Summary of the method: as §2

K. pneumonia 681 = assay type: cell-based, Klebsiella pneumoniae; conditions: 20 h
Summary of the method: as §1

[3] = test system: R. radiobatter ATCC 15955; test: Growth inhibition assay (MIC); assay type: cell-based, Rhizobium radiobacter; conditions: multidrug resistant strain; 1% TSB, 37° C., 20 hrs
Summary of the method: as §2

S. typhi S5 = assay type: cell-based, Salmonella typhi; conditions: S5, 20 h
Summary of the method: as §2

M. luteus ATCC 10240 = assay type: cell-based, Micrococcus luteus; conditions: ATCC 10240, 20 h
Summary of the method: as §1

E. coli 45849 = test: Growth inhibition assay (MIC); assay type: cell-based, Escherichia coli; conditions: multidrug resistant strain; 1% TSB, 37° C., 20 hrs
Summary of the method: as §2

[4] = test system: K. Pneumonia K6, ATCC 700603; test: Growth inhibition assay (MIC); assay type: cell-based, Klebsiella pneumoniae; conditions: multidrug resistant strain; 1% TSB, 37° C., 20 hrs
Summary of the method: as §2

K. Pneumonia 123132 = test: Growth inhibition assay (MIC); assay type: cell-based, Klebsiella pneumoniae; conditions: multidrug resistant strain; 1% TSB, 37° C., 20 hrs
Summary of the method: as §2

E. coli BL21 AI = test system: E. coli BL21 AI
Procedure: The induction of resistance strains was determined according to the macro dilution method under NCCLS-conditions (National Committee for Clinical Laboratory Standards—now Clinical and Laboratory Standards Institute Wayne, Pa., USA, NCCLS-Guideline, M7-A5, Vol. 20, Nr. 2; 2000).
Firstly, minimal inhibition concentrations (MIC) were determined for the peptides to be examined as described in example 3.2. To determine induction of resistance continued dilutions of the peptide with concentrations ranging from 3 fold to 4 fold above to below the MIC were chosen. The test was performed in sterile 96-well microtiter plates with round bottoms (Polystyrene, U-bottom, Greiner Bio-One GmbH, Germany) and 200 μL final volume per well. The freeze-dried peptide or peptide derivatives were dissolved in water and diluted in respect to the MIC in 1% TSB (tryptic soy broth) to obtain a volume of 100 μL. […] The dilutions within the series were twofold.
The bacteria, E. coli BL21 AI, were grown overnight at 37° C. in nutrient broth (NB, Carl Roth GmbH+Co. KG, Karlsruhe, Germany) and diluted to 5×10^6 colony forming units (CFU)/mL in 1% TSB. To start the assay 100 μL of the bacteria dilution was added per well of the microtiter plate loaded with peptide. After incubating the plates for 24 h at 37° C., the absorption was determined at 595 nm using a TECAN microtiter plate reader (Tecan, Germany).
MIC values were calculated as described in example 3.2. The test was repeated using new dilution series with peptide concentrations adapted to the new determined MIC values and using the bacteria culture that grew despite the presence of the inhibitory peptide. This bacteria culture (1st passage) was diluted to 5×10^6 CFU/mL in 1% TSB. […] The test was repeated again with using new dilution series with peptide concentrations adapted to the new determined MIC values and using the bacteria culture that grew despite the presence of the inhibitory peptide (2nd passage). The same procedure was applied for about 8 further passages.
As a control a untreated E. coli BL21 AI culture was chosen and passaged without inhibitory peptides. All peptides and peptide derivatives were measured in triplicates. The number of passages was chosen dependent on the rapidity of induction of resistance and commonly was 10 passages over 10 continuous days.

in vitro = in vitro ADME, mouse; conditions: 25% aqueous mouse serum, 37° C.; read-out: Half-life time
Summary of the method: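 Peptide or peptidomimetic (0.5 mg/mL aqueous stock) incubated in 25% pooled mouse serum at 37 °C, sampled at 0–6 h, in duplicate. Proteins precipitated with 15% TCA; supernatants neutralized and analyzed by RP-HPLC with 0.1% TFA. Degradation products identified by MALDI-TOF/TOF-MS.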

[5] = cited from earlier work

Row | Molecule | MIC B. subtilis 347 (B. subtilis 347) [µg/mL] | MIC E. coli 10233 (E. coli 10233) [µg/mL] | MIC E. coli 1103 (E. coli 1103) [µg/mL] | MIC E. coli D31 (E. coli D31) [µg/mL] | MIC S. enterica subsp. Enterica serovar. typhi G10215 ATCC 700408 [2] [µg/mL] | MIC K. pneumonia 681 (K. pneumonia 681) [µg/mL] | MIC S. typhi S5 (S. typhi S5) [µg/mL] | MIC M. luteus ATCC 10240 (M. luteus ATCC 10240) [µg/mL] | induction of resistance (E. coli BL21 AI; 10 passages) | also measured
1 | 160 (Dy675-[Orn]NNRPVYIPRPRPPHPRL-NH2) [compound 160] |  |  |  |  |  |  |  |  |  | in vivo biodistribution (fluorescence imaging) [1]: enriched in brain, liver, and both kidneys
2 | CC[C@H](C)[C@H](NC(=O)[C@H](Cc1ccc(O)cc1)NC(=O)[C@@H](NC(=O)[C@@H]1CCCN1C(=O)[C@H](CCCNC(=N)N)NC(=O)[C@H](CC(N)=O)NC(=O)[C@H](CC(N)=O)NC(=O)[C@H](CCCN)NC(C)=O)C(C)C)C(=O)N1CCC[C@H]1C(=O)N[C@@H](CCCNC(=N)N)C(=O)N1CCC[C@H]1C(=O)N[C@@H](CCCNC(=N)N)C(=O)N1CCC[C@H]1C(=O)N1CCC[C@H]1C(=O)N[C@@H](Cc1c[nH]cn1)C(=O)N1CCC[C@H]1C(=O)N[C@@H](CCCNC(=N)N)C(=O)N[C@@H](CC(C)C)C(N)=O [compound 39] (Ac-[Orn]NNRPVYIPRPRPPHPRL-NH2) | 125 (≈ 55.9 µM) | 1.95 (≈ 0.873 µM) | 3.91 (≈ 1.75 µM) | 4 (≈ 1.79 µM) | 4 (≈ 1.79 µM) | 3.9 (≈ 1.75 µM) | <0.5 | 0.98 (≈ 0.439 µM) |  | MIC Mycobacterium vaccae (Mycobacterium vaccae): 125 µg/mL (≈ 55.9 µM); MIC E. coli BL 21 AI (E. coli BL 21 AI): 1.95 µg/mL (≈ 0.873 µM); MIC E. coli DC 2 (E. coli DC 2): 0.98 µg/mL (≈ 0.439 µM); MIC R. radiobatter ATCC 15955 [3]: 0.33 µg/mL (≈ 0.148 µM); MIC E. coli 45849 (E. coli 45849): 1 µg/mL (≈ 0.447 µM); MIC K. Pneumonia K6, ATCC 700603 [4]: 16 µg/mL (≈ 7.16 µM); MIC K. Pneumonia 123132 (K. Pneumonia 123132): 4 µg/mL (≈ 1.79 µM)
3 | CC[C@H](C)[C@H](NC(=O)[C@H](Cc1ccc(O)cc1)NC(=O)[C@@H](NC(=O)[C@@H]1CCCN1C(=O)[C@H](CCCNC(=N)N)NC(=O)[C@H](CC(N)=O)NC(=O)[C@H](CC(N)=O)NC(=O)[C@H](CCCN)N=C(N(C)C)N(C)C)C(C)C)C(=O)N1CCC[C@H]1C(=O)N[C@@H](CCCNC(=N)N)C(=O)N1CCC[C@H]1C(=O)N[C@@H](CCCNC(=N)N)C(=O)N1CCC[C@H]1C(=O)N1CCC[C@H]1C(=O)N[C@@H](Cc1c[nH]cn1)C(=O)N1CCC[C@H]1C(=O)N[C@@H](CCCNC(=N)N)C(=O)N[C@@H](CC(C)C)C(N)=O [compound 88] ({Orn(α-tetramethylguanidino)}-NNRPVYIPRPRPPHPRL-NH2; N-terminus and C-terminus assumed) | 62.5 (≈ 27.3 µM) | 1.95 (≈ 0.851 µM) |  | 0.5 (≈ 0.218 µM) | 0.125 (≈ 0.0546 µM) | 7.81 (≈ 3.41 µM) | 0.125 (≈ 0.0546 µM) | 1.95 (≈ 0.851 µM) | no induction of resistance was observed at all | half-life (in vitro): 15 min
4 | CC[C@H](C)[C@H](NC(=O)[C@H](Cc1ccc(O)cc1)NC(=O)[C@@H](NC(=O)[C@@H]1CCCN1C(=O)[C@H](CCCNC(=N)N)NC(=O)[C@H](CC(N)=O)NC(=O)[C@H](CC(N)=O)NC(=O)[C@H](CCCN)N=C(N(C)C)N(C)C)C(C)C)C(=O)N1CCC[C@H]1C(=O)N[C@@H](CCCNC(=N)N)C(=O)N1CCC[C@H]1C(=O)N[C@@H](CCCNC(=N)N)C(=O)N1CCC[C@H]1C(=O)N1CCC[C@H]1C(=O)N[C@@H](Cc1c[nH]cn1)C(=O)N1CCC[C@H]1C(=O)N[C@@H](CCCNC(=N)N)C(=O)N[C@@H](CC(C)C)C(=O)O [compound 137] ({Orn(α-tetramethylguanidino)}-NNRPVYIPRPRPPHPRL-OH; N-terminus and C-terminus assumed) | 64 (≈ 27.9 µM) |  | 8 (≈ 3.49 µM) | <1 | <1 | 2 (≈ 0.873 µM) | <1 | 8 (≈ 3.49 µM) | no induction of resistance was observed at all | 
5 | GNNRPVYIPQPRPPHPRL [apidaecin] |  |  |  |  |  |  |  |  |  | degradation in mammalian serum [5]: completely degradaded within one hour
6 | H-GNNRPVYIPQPRPPHPRL-OH [SEQ ID No. 2, GNNRPVYIPQPRPPHPRL-OH, reference compound] |  |  |  |  |  |  |  |  |  | passage after which first resistance strains were obtained (E. coli BL21 AI; 10 passages): 2nd; MIC-value in the 10th passage (E. coli BL21 AI; 10th passage): 128 µg/mL
